Calls of active or inactive are those of the source. No cut-off for these calls is given here.
Columns and labels:
[1] = molecular target: T1, Dual specificity protein kinase TTK (Homo sapiens) (UniProt P33981); assay: Binding affinity to human hexa-His tagged MPS1 (515 to 795 residue) expressed in Escherichia coli BL2I-DE3 cells assessed as change in melting temperature by thermal shift assay
T1 sequence (whole entry): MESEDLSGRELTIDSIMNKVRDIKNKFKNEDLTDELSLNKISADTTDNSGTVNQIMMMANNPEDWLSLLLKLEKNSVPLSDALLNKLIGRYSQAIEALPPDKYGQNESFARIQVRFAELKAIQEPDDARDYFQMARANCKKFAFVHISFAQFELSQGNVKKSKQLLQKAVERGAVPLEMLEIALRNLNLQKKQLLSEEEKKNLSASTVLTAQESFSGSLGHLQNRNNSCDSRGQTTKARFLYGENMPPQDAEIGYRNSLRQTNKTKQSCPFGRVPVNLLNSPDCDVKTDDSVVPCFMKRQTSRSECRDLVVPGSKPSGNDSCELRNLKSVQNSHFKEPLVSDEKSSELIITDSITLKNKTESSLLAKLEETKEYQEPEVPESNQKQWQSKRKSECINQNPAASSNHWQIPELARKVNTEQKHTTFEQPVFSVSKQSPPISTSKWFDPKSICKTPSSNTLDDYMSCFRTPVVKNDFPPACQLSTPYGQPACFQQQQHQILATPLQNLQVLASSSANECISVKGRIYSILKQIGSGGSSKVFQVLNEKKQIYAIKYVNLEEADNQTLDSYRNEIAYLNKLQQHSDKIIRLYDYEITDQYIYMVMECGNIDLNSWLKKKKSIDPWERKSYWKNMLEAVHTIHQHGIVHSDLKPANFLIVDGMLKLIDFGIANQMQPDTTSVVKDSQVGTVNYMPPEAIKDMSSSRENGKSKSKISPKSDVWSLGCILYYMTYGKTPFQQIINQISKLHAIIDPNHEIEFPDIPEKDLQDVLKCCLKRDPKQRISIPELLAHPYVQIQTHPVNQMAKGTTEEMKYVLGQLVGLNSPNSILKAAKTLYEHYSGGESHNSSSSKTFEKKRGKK

MDA-MB-231 [2] = assay: Growth inhibition of human MDA-MB-231 cells measured after 5 days by CellTiter-Glo assay; assay type: functional; settings: time 5 day; for GI50: Homo sapiens, MDA-MB-231, 120 h
[3] = molecular target: T2, Dual specificity protein kinase TTK (Homo sapiens, UniProt P33981); assay: Inhibition of human hexa-His tagged MPS1 (515 to 795 residue) expressed in Escherichia coli BL2I-DE3 cells incubated for 4 hrs in presence of ATP by ADP-glo luminescence assay
T2 sequence (P33981 whole entry): T1 sequence (whole entry)

[4] = Metabolic stability in human liver microsomes assessed as compound remaining after 30 mins; assay type: ADME, Microsome; settings: read-out: Stability
[5] = Half life in ICR mouse at 10 mg/kg, po; assay type: ADME, organism-based; settings: in vivo
[6] = Oral bioavailability in ICR mouse at 10 mg/kg; assay type: ADME, organism-based; settings: in vivo
[7] = AUC in ICR mouse at 10 mg/kg, po; assay type: ADME, organism-based; set-up: dose 10 mg/kg; settings: in vivo
[8] = Cmax in ICR mouse at 10 mg/kg, po; assay type: ADME, organism-based; set-up: route oral, dose 10 mg/kg; settings: in vivo
[9] = molecular target: T1, Dual specificity protein kinase TTK (Homo sapiens); assay: Inhibition of human […] assessed as reduction in MPS1 autophosphorylation at 0.1 to 10 uM by Western blot analysis; settings: dose 0.1-10 µM
[10] = molecular target: T1, Dual specificity protein kinase TTK (Homo sapiens); assay: Inhibition of human […] assessed as reduction in histone H3 phosphorylation at 0.1 to 10 uM by Western blot analysis; settings: dose 0.1-10 µM
MDA-MB-231 [11] = assay: Antitumor activity against human MDA-MB-231 cells xenografted in athymic mouse model assessed as tumor growth inhibition at 2 mg/kg administered daily and measured twice a week; assay type: functional; settings: read-out: TGI
[12] = Toxicity in athymic mouse xenografted with human MDA-MB-231 cells assessed as body weight gain at 2 mg/kg administered daily and measured twice a week (reference value: 15.5 %); assay type: organism-based; settings: in vivo
[13] = Toxicity in athymic mouse xenografted with human MDA-MB-231 cells assessed as change in intestine morphology at 2 mg/kg administered daily and measured twice a week; assay type: organism-based; settings: in vivo
[14] = Toxicity in athymic mouse xenografted with human MDA-MB-231 cells assessed as effect on body weight at 2 mg/kg administered daily and measured twice a week; assay type: organism-based; settings: in vivo

ΔTm [1] [°C]	GI50 (MDA-MB-231 [2]) [µM]	GI90 (MDA-MB-231 [2]) [µM]	SMILES	other results
13.8	0.02	0.122	COc1cc(N2CCCC2=O)ccc1Nc1nc(NCC(C)C)c2c(C#N)c[nH]c2n1	
18.1	0.129	>1	Cc1cc(N2CCOCC2)ccc1Nc1nc(NC2CCCCC2)c2c(Cl)c[nH]c2n1	
13.8	0.364	0.668	N#Cc1c[nH]c2nc(Nc3ccc(N4CCCC4=O)cn3)nc(NC3CCCCC3)c12	
15.1	0.096	0.328	CC[C@H](C)Nc1nc(Nc2ccc(N3CCCC3=O)cc2OC)nc2[nH]cc(C#N)c12	
16.1	0.003	0.043	COc1cc(C(=O)N2CCOCC2)ccc1Nc1nc(NC2CCCCC2)c2c(C#N)c[nH]c2n1	IC50 [3]: 0.0032 µM; remaining at 0.5 h [4]: 56%; half-life [5]: 2.6 h; bioavailability [6]: 98%; AUC [7]: 3770 ng·h/mL; Cmax [8]: 995 ng/mL
14.4	0.149	>1	COc1cc(N2CCCC2=O)ccc1Nc1nc(NCC(C)(C)C)c2c(C#N)c[nH]c2n1	
15.3	0.055	0.38	COc1cc(N2CCCC2=O)ccc1Nc1nc(NC2CCCCC2)c2cc[nH]c2n1	
14.2	0.01	0.481	COc1cc(N2CCCC2=O)ccc1Nc1nc(NC(C)C)c2c(C#N)c[nH]c2n1	
19.9	0.017	0.313	Cc1cc(N2CCOCC2)ccc1Nc1nc(NC2CCCCC2)c2c(C#N)c[nH]c2n1	IC50 [3]: 0.0063 µM; remaining at 0.5 h [4]: 57%; half-life [5]: 1.2 h; bioavailability [6]: 44%; AUC [7]: 1270 ng·h/mL; Cmax [8]: 749 ng/mL
14.3	> 1	>1	COc1cc(N2CCCC2=O)ccc1Nc1nc(NC2CCC2)c2c(C#N)c[nH]c2n1	
18.3	0.011	0.037	COc1cc(N2CCCC2=O)ccc1Nc1nc(NC2CCCCC2)c2c(C#N)c[nH]c2n1	inhibition [9]: Active; IC50 [3]: 0.0064 µM; remaining at 0.5 h [4]: 60%; half-life [5]: 1.1 h; bioavailability [6]: 61%; inhibition [10]: Active; inhibition in vivo at 2 mg/kg (MDA-MB-231 [11]): 57%; AUC [7]: 6150 ng·h/mL; Cmax [8]: 2220 ng/mL; Activity [12]: 7.6%; Activity [13]: Non-Toxic; Activity [14]: Non-Toxic
7.3	0.637	>1	CNc1nc(Nc2ccc(N3CCCC3=O)cc2OC)nc2[nH]cc(C#N)c12	
16.9	0.108	0.478	CCOc1cc(N2CCCC2=O)ccc1Nc1nc(NC2CCCCC2)c2c(C#N)c[nH]c2n1	
17.2	0.046	0.067	N#Cc1c[nH]c2nc(Nc3ccc(N4CCCC4=O)cc3)nc(NC3CCCCC3)c12	
11.2	0.018	0.267	CCCCNc1nc(Nc2ccc(N3CCCC3=O)cc2OC)nc2[nH]cc(C#N)c12	
17.2	0.01	>1	COc1cc(N2CCOCC2=O)ccc1Nc1nc(NC2CCCCC2)c2c(C#N)c[nH]c2n1	
15.1	0.916	>1	COCC(C)(C)Nc1nc(Nc2ccc(N3CCCC3=O)cc2OC)nc2[nH]cc(C#N)c12	
15.2	0.171	>1	COc1cc(N2CCCC2=O)ccc1Nc1nc(NCC2CCCC2)c2c(C#N)c[nH]c2n1	
17.1	0.025	0.383	COc1cc(N2CCCC2=O)ccc1Nc1nc(NC2CCCC2)c2c(C#N)c[nH]c2n1	
15.2	0.109	>1	Cn1cc(Nc2nc(NC3CCCCC3)c3c(C#N)c[nH]c3n2)cn1	
14.8	> 1	>1	COc1cc(N2CCCC2=O)ccc1Nc1nc(NC2CCOCC2)c2c(C#N)c[nH]c2n1	
17.2	> 1	>1	Cc1cc(N2CCOCC2)ccc1Nc1nc(NC2CCCCC2)c2c(C(F)(F)F)c[nH]c2n1	
15.2	> 1	>1	COc1cc(N2CCCC2=O)ccc1Nc1nc(NCC2CCC2)c2c(C#N)c[nH]c2n1	
15.1	0.327	>1	COc1cc(N2CCCC2=O)ccc1Nc1nc(NC2CCCCC2)c2c(C(F)(F)F)c[nH]c2n1	

Reference: ChEMBL document CHEMBL5036311, “X-ray Crystal Structure-Guided Design and Optimization of 7H-Pyrrolo[2,3-d]pyrimidine-5-carbonitrile Scaffold as a Potent and Orally Active Monopolar Spindle 1 Inhibitor” (J Med Chem, 2021)
